For twelve compounds, IC50 and Kd results are on record in patent US10526325B2, “Bicyclic heterocyclic derivatives” (Merck Patent GmbH, priority 2015, dated 2020).

Like-named read-outs stand apart in the source and are kept apart here. Bounds are passed on as bounds.

Test [1] has as its system PDH-E1alpha (pSer300) in HEK293T cells. In words: Cellular immunofluorescence assay, PDH-E1alpha (pSer300) in HEK293T cells. To be noted: 5 hours incubation, anti-PDH-E1alpha (pSer300) immunofluorescence, read-out: IC50 (cell data). It is filed as cell-based, human. As for the experimental part: Cellular Assay for Determination of Compound Activities
Compound activities were determined in a cellular immunofluorescence assay. Human HEK293T cells were seeded into black 384-well plates with clear bottom and grown overnight.
Next day, test compounds were added to the wells and the plates incubated for 5 hours. Following this, cells were fixed with formaldehyde, permeabilised and blocked. The primary antibody, Anti-PDH-E1alpha (pSer300), AP1064 (Merck Millipore) was added and incubated overnight in the plate wells. Next, cells were washed and the secondary antibody, Alexa Fluor 488, goat anti-rabbit ab (A-11008, Invitrogen) was added together with Hoechst 33258 (H3569, Invitrogen) and incubated for 1 hour in the plate wells. Finally, cells were washed and the plates were measured on the laser scanning cytometer acumen hci (TTpLabtech).
The raw data were normalized against a pharmacological inhibitor control and dose response curves were generated by plotting the percent effect values using the software package Genedata screener (Genedata).

The target in another test is human PDHK2 (12-407) (Homo sapiens (Human), UniProt Q15119). Nature of the test: Isothermal titration calorimetry (ITC) binding. As to conditions: ITC at 30° C., pH 7.5. As for the experimental part: Isothermal Titration Calorimetry
ITC measurements were performed with a VP-ITC micro calorimeter (Microcal, LLC/GE Healthcare Bio-Sciences Aft Uppsala, Sweden). In general titrations were performed by titrating the protein (50 μM) to the test compound (5 μM) in 12 μl injections. All binding experiments were carried out at 30° C. In general the test compounds were diluted form DMSO stock solutions into the measurement buffer with a maximum final concentration of 1% DMSO. The measurement buffer was 20 mM HEPES, 135 mM KCl, 1 mM TCEP, 2 mM MgCl2, 15 mM NaH2PO4, pH 7.5. The human PDHK2 (12-407) was produced in E. coli as his-tagged protein and purified by affinity chromatography. The tag was removed by side specific proteolysis. Before titration the protein buffer was changed to the measurement buffer containing the same DMSO concentration as the test compound dilution. ITC data analysis was performed using Origin 7 calorimetry software from the same supplier. For most measurements a binding model of one binding site was assumed. According to the applied mathematical model it is possible to calculate the binding constant (KA), the observed binding enthalpy (ΔH^obs) as well as the stoichiometry (N) of the formed complex.
Preceding analysis the raw data was corrected for the heats of dilution by extrapolating from the saturation value from the end of titration. In order to allow for direct comparison between the respective experimental series and protein preparations the protein concentration was corrected by referencing titrations to a well behaved standard inhibitor. The apparent stoichiometry values defined the fraction of binding competent protein and compensated for relative errors in protein concentration measurements. This corrected protein concentration was used to set up ITC experiment series with test compounds. Any deviations from ideal 1:1 stoichiometry observed here were attributed to errors in compound concentration. This nominal compound concentration was corrected as well to achieve 1:1 stoichiometry in the fit.
(In general: ITC needs no label: the signal is the heat of the interaction.)

Another test deals with PDHK2 (Homo sapiens (Human), UniProt Q15119). In words: Biochemical activity testing of PDHK2: PDC inactivation assay. To be noted: human rec PDHK2, porcine heart PDC, 5 μM ATP, read-out: IC50 PDHK2 (enzyme assay). The procedure, abridged:
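Recombinant human PDHK2 (137 nM final) and porcine heart PDC (20 mU/ml) preincubated with compound 30 min at RT in pH 7.0 phosphate kinase buffer, then 5 μM ATP 30 min at 37° C. PDC activity read as NADH fluorescence increase (Ex 340/Em 450 nm) over 45 min with pyruvate, NAD and CoA; 3 mM DCA defined zero; IC50 determined.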

As to `COc1ncc(F)c(-n2ncc3c2[C@@H](C)CN(C(=O)[C@@](C)(O)C(F)(F)F)C3)n1` [Compound A37, (R)-3,3,3-Trifluoro-1-[(S)-1-(5-fluoro-2-methoxy-pyrimidin-4-yl)-7-methyl-1,4,6,7-tetrahydro-pyrazolo[4,3-c]pyridin-5-yl]-2-hydroxy-2-methyl-propan-1-one], the IC50 (in general, the point on the concentration scale where inhibition reaches its midpoint) in test [1] (Homo sapiens, HEK-293T) was in the range of 3000 to 50000 nM; on PDHK2 it was 300 to 3000 nM. For the same compound, the Kd (as a rule, the free concentration of one partner at which half of the binding sites on the other are occupied at equilibrium, for simple one-to-one binding) on human PDHK2 (12-407) lay within 300 to 3000 nM.
Take `C[C@@H]1CN(C(=O)[C@@](C)(O)C(F)(F)F)Cc2cnn(C3CCC(O)CC3)c21` (stereo partly drawn) [Compound A38, (R)-3,3,3-Trifluoro-2-hydroxy-1-[(R)-1-(4-hydroxy-cyclohexyl)-7-methyl-1,4,6,7-tetrahydro-pyrazolo[4,3-c]pyridin-5-yl]-2-methyl-propan-1-one]: the IC50 in test [1] (Homo sapiens, HEK-293T) was less than 300 nM; at PDHK2 it was less than 300 nM. The same compound showed a Kd at human PDHK2 (12-407) of less than 300 nM.
Consider `C[C@@H]1CN(C(=O)[C@@](C)(O)C(F)(F)F)Cc2cnn(-c3ccc(F)cn3)c21` [Compound A40, (R)-3,3,3-Trifluoro-1-[(R)-1-(5-fluoro-pyridin-2-yl)-7-methyl-1,4,6,7-tetrahydro-pyrazolo[4,3-c]pyridin-5-yl]-2-hydroxy-2-methyl-propan-1-one], for which the IC50 is less than 300 nM in test [1] (Homo sapiens, HEK-293T) and less than 300 nM at PDHK2. This compound also registered a Kd on human PDHK2 (12-407) of less than 300 nM.
Turning to `C[C@@](O)(C(=O)N1CCc2ncn(-c3ccccc3)c2C1)C(F)(F)F` [Compound A43, (R)-3,3,3-Trifluoro-2-hydroxy-2-methyl-1-(3-phenyl-3,4,6,7-tetrahydro-imidazo[4,5-c]pyridin-5-yl)-propan-1-one], the IC50 (in test [1]; at PDHK2) was 300 to 3000 nM each time. The compound also showed a dissociation constant Kd on human PDHK2 (12-407) of less than 300 nM.
For the compound `C[C@@](O)(C(=O)N1CCc2c(nnn2-c2ccccc2)C1)C(F)(F)F` [Compound A46, (R)-3,3,3-Trifluoro-2-hydroxy-2-methyl-1-(1-phenyl-1,4,6,7-tetrahydro-[1,2,3]triazolo[4,5-c]pyridin-5-yl)-propan-1-one], the IC50 in test [1] (Homo sapiens, HEK-293T) was in the range of 3000 to 50000 nM; at PDHK2, 300 to 3000 nM. The compound also showed a Kd on human PDHK2 (12-407) of less than 300 nM.
On the same counts, the results for `C[C@@](O)(C(=O)N1CCc2c(nnn2-c2ccc(F)cc2)C1)C(F)(F)F` [Compound A47, (R)-3,3,3-Trifluoro-1-[1-(4-fluoro-phenyl)-1,4,6,7-tetrahydro-[1,2,3]triazolo[4,5-c]pyridin-5-yl]-2-hydroxy-2-methyl-propan-1-one] are 3000 to 50000 nM, 300 to 3000 nM and less than 300 nM.
For `C[C@@](O)(C(=O)N1CCn2c(-c3ccccc3)cnc2C1)C(F)(F)F` [Compound A49, (R)-3,3,3-Trifluoro-2-hydroxy-2-methyl-1-(3-phenyl-5,6-dihydro-8H-imidazo[1,2-a]pyrazin-7-yl)-propan-1-one], the IC50 in test [1] (Homo sapiens, HEK-293T) was 3000 to 50000 nM; at PDHK2, 300 to 3000 nM. On human PDHK2 (12-407), this compound came in with a Kd of less than 300 nM.
`C[C@@](O)(C(=O)N1CCn2c(cnc2-c2ccccc2)C1)C(F)(F)F` [Compound A50, (R)-3,3,3-Trifluoro-2-hydroxy-2-methyl-1-(3-phenyl-5,6-dihydro-8H-imidazo-[1,5-a]pyrazin-7-yl)-propan-1-one]: the IC50 in test [1] (Homo sapiens, HEK-293T) fell in the range of 3000 to 50000 nM; on PDHK2, 300 to 3000 nM. The same compound gave a Kd at human PDHK2 (12-407) of less than 300 nM.
On the same counts, the results for `C[C@@](O)(C(=O)N1CCn2c(cnc2-c2ccc(F)cc2)C1)C(F)(F)F` [Compound A51, (R)-3,3,3-Trifluoro-1-[3-(4-fluoro-phenyl)-5,6-dihydro-8H-imidazo[1,5-a]pyrazin-7-yl]-2-hydroxy-2-methyl-propan-1-one] are 3000 to 50000 nM, 300 to 3000 nM and less than 300 nM.
`C[C@@H]1CN(C(=O)[C@@](C)(O)C(F)(F)F)Cc2cnc(-c3ccc(F)cc3)n21` [Compound A52, (R)-3,3,3-Trifluoro-1-[(R)-3-(4-fluoro-phenyl)-5-methyl-5,6-dihydro-8H-imidazo[1,5-a]pyrazin-7-yl]-2-hydroxy-2-methyl-propan-1-one]: the IC50 was less than 300 nM in test [1] (Homo sapiens, HEK-293T) and less than 300 nM on PDHK2. For the same compound, the Kd on human PDHK2 (12-407) was less than 300 nM.
Consider `C[C@@H]1CN(C(=O)[C@@](C)(O)C(F)(F)F)Cc2cnc(-c3ccc(F)cc3F)n21` [Compound A54, (R)-1-[(R)-3-(2,4-Difluoro-phenyl)-5-methyl-5,6-dihydro-8H-imidazo[1,5-a]pyrazin-7-yl]-3,3,3-trifluoro-2-hydroxy-2-methyl-propan-1-one], for which the IC50 in test [1] (Homo sapiens, HEK-293T) is less than 300 nM; at PDHK2, less than 300 nM. On human PDHK2 (12-407), the Kd was less than 300 nM.
As to `C[C@@H]1CN(C(=O)[C@@](C)(O)C(F)(F)F)Cc2cnc(-c3ncc(F)cc3F)n21` [Compound A57, (R)-1-[(R)-3-(3,5-Difluoro-pyridin-2-yl)-5-methyl-5,6-dihydro-8H-imidazo[1,5-a]pyrazin-7-yl]-3,3,3-trifluoro-2-hydroxy-2-methyl-propan-1-one], the IC50 is less than 300 nM in test [1] (Homo sapiens, HEK-293T) and 300 to 3000 nM at PDHK2. Further, the Kd on human PDHK2 (12-407) is less than 300 nM.
